Data published in patent publication US6218367A, “Paclitaxel-carbohydrate conjugates: design, synthesis and biological evaluations” (Organomed Corporation, priority 1999, dated 2001).
Read-outs that look alike come from different tables or passages of the source.

Assays:
PC-3 = test: NCI in vitro human tumor cell line screen, prostate cancer; assay type: cell-based
[1] = Water solubility as equilibrium concentration by HPLC
Method: The water solubility of compound 1 was determined as an equilibrium concentration at room temperature using HPLC measurements.

OVCAR-3 = test: NCI in vitro human tumor cell line screen, ovarian cancer; assay type: cell-based
NCI-H226 = test: NCI in vitro human tumor cell line screen, non small lung cancer; assay type: cell-based; details: 48 hours
SF-268 = test: NCI in vitro human tumor cell line screen, CNS cancer; assay type: cell-based; details: for GI50: Homo sapiens
HT-29 = test: NCI in vitro human tumor cell line screen, colon cancer; assay type: cell-based
Method: (§1) Compounds were tested as described (Monks, A. et al., (1991). J. Nat. Cancer Int., 83, 757-766; Boyd, M. R., and Paull, K. D., (1995) "Some practical considerations and applications of the National Cancer Institute In Vitro Anticancer Drug Discovery Program", Drug Development Res., 34, 91-109 in the NCI in vitro human tumor cell line screen). The compounds were examined in 60 different cell lines. The following definitions are based on the National Cancer Institute in vitro screen protocol (Boyd, M. R., and Paull, K. D., (1995) "Some practical considerations and applications of the National Cancer Institute In Vitro Anticancer Drug Discovery Screen", ibid., 34, 91-109).
(§2) The "50% growth inhibition" parameter (GI50) is the concentration of test drug where: [formula]
(§3) T is the optical density of the test well after 48 hours drug exposure, T0 is the optical density at time zero, and C is the control optical density, PG is the "percent growth". It is a T/C like parameter that can have values from +100 to -100.
(§4) Total Growth Inhibition (TGI) signifies the cytostatic level effect: [formula]
(§5) The GI50, TGI and LC50 values were calculated by interpolation using the tested concentrations that give PG values above and below the response reference values (e.g. 50 for GI50). Dose-response curves are compared for compound 1 and paclitaxel for breast cancer, ovarian cancer, CNS cancer and non-small lung cancer in FIGS. 1-4 respectively.

HCT-15 = test: as above; assay type: cell-based
IGROVI = test: NCI in vitro human tumor cell line screen, ovarian cancer; assay type: cell-based; details: vs paclitaxel
RPMI-8226 = test: NCI in vitro human tumor cell line screen, leukemia; assay type: cell-based; details: RPMI-8226, leukemia, 48 hours
A549/ATCC = test: NCI in vitro human tumor cell line screen, non small lung cancer; assay type: cell-based; details: 48 hours
NCI-H23 = test: as above; assay type: cell-based
HCT-116 = test: NCI in vitro human tumor cell line screen, colon cancer; assay type: cell-based; details: HCT-116, colon cancer, 48 hours
T-47D = test: NCI in vitro human tumor cell line screen, breast cancer; assay type: cell-based
MCF-7 = test: as above; assay type: cell-based
OVCAR-8 = test: NCI in vitro human tumor cell line screen, ovarian cancer; assay type: cell-based; details: OVCAR-8, ovarian cancer, 48 hours
RXF-393 = test: NCI in vitro human tumor cell line screen, renal cancer; assay type: cell-based
SF-539 = test: NCI in vitro human tumor cell line screen, CNS cancer; assay type: cell-based; details: SF-539, CNS cancer, 48 hours
SW-620 = test: NCI in vitro human tumor cell line screen, colon cancer; assay type: cell-based; details: SW-620, colon cancer, 48 hours
EKVX = test: NCI in vitro human tumor cell line screen, non small lung cancer; assay type: cell-based; details: 48 hours
COLO205 = test: NCI in vitro human tumor cell line screen, colon cancer; assay type: cell-based
HL-60TB = test: NCI in vitro human tumor cell line screen, leukemia; assay type: cell-based
MDA-MB-435 = test: NCI in vitro human tumor cell line screen, breast cancer; assay type: cell-based; details: 48 h, MDA-MB-435, breast cancer, read-out: TGI (total growth inhibition)
Method: as §1, §2, §3, §4, §5

HS578T = test: as above; assay type: cell-based; details: Hs-578T
Method: as §1, §2, §3, §4, §5

MDA-N = test: as above; assay type: cell-based
Method: as §1, §2, §3, §4, §5

DU-145 = test: NCI in vitro human tumor cell line screen, prostate cancer; assay type: cell-based
[2] = test system: non-small cell lung cancer; test: NCI screen, non-small cell lung cancer dose response curves; assay type: cell-based, human; details: FIG. 4, vs paclitaxel
UACC-62 = test: NCI in vitro human tumor cell line screen, melanoma; assay type: cell-based; details: UACC-62, melanoma, vs paclitaxel
CCRF-CEM = test: NCI in vitro human tumor cell line screen, leukemia; assay type: cell-based
OVCAR-5 = test: NCI in vitro human tumor cell line screen, ovarian cancer; assay type: cell-based
ADR-RES = test: NCI in vitro human tumor cell line screen, breast cancer; assay type: cell-based; details: vs paclitaxel
HCC-2998 = test: NCI in vitro human tumor cell line screen, colon cancer; assay type: cell-based; details: HCC-2998, colon cancer, 48 hours
NCI-H522 = test: NCI in vitro human tumor cell line screen, non small lung cancer; assay type: cell-based; details: 48 hours
SK-OV-3 = test: NCI in vitro human tumor cell line screen, ovarian cancer; assay type: cell-based; details: SK-OV-3, ovarian cancer, 48 hours
SF-295 = test: NCI in vitro human tumor cell line screen, CNS cancer; assay type: cell-based
[3] = test system: various cancer cell lines; test: NCI in vitro human tumor cell line screen, various cancer cell lines; assay type: cell-based; details: for IC (TGI): Homo sapiens, 48 h, read-out: TGI values (concentrations), order of magnitude
Method: as §1, §2, §3, §4
The LC50 is the lethal dose concentration, "net cell killing" or cytotoxicity parameter: [formula]
as §5

CNS cancer = test: NCI screen, CNS cancer dose response curves; assay type: cell-based, human; details: FIG. 3, vs paclitaxel
SNB-75 = test: NCI in vitro human tumor cell line screen, CNS cancer; assay type: cell-based; details: for GI50: Homo sapiens
Method: as §1, §2, §3, §4, §5

SN12C = test: NCI in vitro human tumor cell line screen, renal cancer; assay type: cell-based
SNB-19 = test: NCI in vitro human tumor cell line screen, CNS cancer; assay type: cell-based; details: SNB-19, CNS cancer, 48 hours
[4] = test system: ovarian cancer cell lines; test: NCI screen, ovarian cancer cell lines as a group; assay type: cell-based, human; details: for GI50: Homo sapiens, read-out: GI50 values, range
NCI-H322M = test: NCI in vitro human tumor cell line screen, non small lung cancer; assay type: cell-based; details: 48 hours
HOP-62 = test: as above; assay type: cell-based; details: HOP-62, non small lung cancer, 48 hours
U251 = test: NCI in vitro human tumor cell line screen, CNS cancer; assay type: cell-based; details: U-251, 48 hours
breast cancer cell lines = test: NCI screen, breast cancer cell lines as a group; assay type: cell-based, human; details: for GI50: Homo sapiens, 48 h, read-out: GI50 values, range
MOLT-2 = test: NCI in vitro human tumor cell line screen, leukemia; assay type: cell-based; details: MOLT-2, leukemia, 48 hours
786-0 = test: NCI in vitro human tumor cell line screen, renal cancer; assay type: cell-based
[5] = 48 h, read-out: TGI (total growth inhibition)

In the case of `CC(=O)OC1C(=O)C2(C)C(O)CC3OCC3(OC(C)=O)C2C(OC(=O)c2ccccc2)C2(O)CC(OC(=O)C(OC(=O)CCC(=O)NCCCC(=O)OC3C(O)C(O)OC(CO)C3O)C(NC(=O)c3ccccc3)c3ccccc3)C(C)=C1C2(C)C` (stereo not drawn) [chackol, (3-glucose) GABA paclitaxel succinate], the GI50 (PC-3; Homo sapiens, PC-3, prostate cancer, 48 hours) is reported as 0.276 nM, the “times more active than paclitaxel (GI50)” value (PC-3; PC-3, vs paclitaxel) is reported as 10 times and the solubility [1] is reported as 240 µg/mL. For the same compound, the GI50 (OVCAR-3; Homo sapiens, OVCAR-3, ovarian cancer, 48 hours) was 0.266 nM, the “times more active than paclitaxel (GI50)” value (OVCAR-3; OVCAR-3, vs paclitaxel) was 18 times and the GI50 (NCI-H226) was 0.419 nM. For the same compound, the GI50 (SF-268; SF-268, CNS cancer, 48 hours, read-out: GI50) was 0.275 nM, the “times more active than paclitaxel (GI50)” value (SF-268; SF-268, vs paclitaxel) was 28 times and the “times more active than paclitaxel (TGI)” value (HT-29; HT-29, colon cancer, vs paclitaxel) was 303 times. The “times more active than paclitaxel (GI50)” value (HT-29; HT-29, vs paclitaxel) was 40 times, the GI50 (HT-29; Homo sapiens, HT-29, colon cancer, 48 hours) was 0.127 nM and the “times more active than paclitaxel (GI50)” value (HCT-15; HCT-15, vs paclitaxel) was 7 times. The GI50 (HCT-15; Homo sapiens, HCT-15, colon cancer, 48 hours) was 27.9 nM, the “times more active than paclitaxel (GI50)” value (IGROVI) was 45 times and the GI50 (RPMI-8226) was 0.266 nM. The GI50 (A549/ATCC) was 0.575 nM, the GI50 (NCI-H23; Homo sapiens, NCI-H23, non small lung cancer, 48 hours) was 0.428 nM and the “times more active than paclitaxel (GI50)” value (NCI-H23; NCI-H23, vs paclitaxel) was 107 times. For the same compound, the GI50 (HCT-116) was 0.228 nM, the GI50 (T-47D; Homo sapiens, T47D, breast cancer, 48 hours) was 0.804 nM and the “times more active than paclitaxel (GI50)” value (T-47D; vs paclitaxel) was 14 times. The GI50 (MCF-7; Homo sapiens, MCF7, MCF-7, breast cancer, 48 hours) was 0.256 nM, the “times more active than paclitaxel (GI50)” value (MCF-7; MCF-7, vs paclitaxel) was 15 times and the GI50 (OVCAR-8) was 0.437 nM. For the same compound, the GI50 (RXF-393; Homo sapiens, RXF-393, renal cancer, 48 hours) was 0.496 nM, the “times more active than paclitaxel (GI50)” value (RXF-393; RXF-393, vs paclitaxel) was 23 times and the GI50 (SF-539) was 0.22 nM. The GI50 (SW-620) was 0.348 nM, the GI50 (EKVX) was 1.98 nM and the “times more active than paclitaxel (GI50)” value (COLO205; COLO25 (so in the source), vs paclitaxel) was 19 times. The GI50 (COLO205; Homo sapiens, COLO 205, COLO205, colon cancer, 48 hours) was 0.247 nM, the “times more active than paclitaxel (GI50)” value (HL-60TB; HL-60 (TB), vs paclitaxel) was 8 times and the GI50 (HL-60TB; Homo sapiens, HL-60TB, leukemia, 48 hours) was 0.249 nM. The IC (TGI) (MDA-MB-435) was 0.215 nM, the IC (TGI) (HS578T; [5]) was 0.592 nM and the GI50 (HS578T; 48 hours) was 0.18 nM. For the same compound, the IC (TGI) (MDA-N; [5]) was 0.294 nM, the GI50 (MDA-N; 48 hours) was 0.105 nM and the “times more active than paclitaxel (GI50)” value (DU-145; DU-145, vs paclitaxel) was 12 times. The GI50 (DU-145; Homo sapiens, DU-145, prostate cancer, 48 hours) was 0.401 nM, the “dose response curve compared with paclitaxel” value [2] was “extend one log unit lower than those for paclitaxel” and the “times more active than paclitaxel (GI50)” value (UACC-62) was 1490 times. The GI50 (CCRF-CEM; Homo sapiens, leukemia, 48 hours) was 0.313 nM, the “times more active than paclitaxel (GI50)” value (CCRF-CEM; vs paclitaxel) was 8 times and the GI50 (OVCAR-5; Homo sapiens, OVCAR-5, ovarian cancer, 48 hours) was 0.156 nM. For the same compound, the “times more active than paclitaxel (GI50)” value (OVCAR-5; OVCAR-5, vs paclitaxel) was 32 times, the “times more active than paclitaxel (GI50)” value (ADR-RES) was 23 times and the GI50 (HCC-2998) was 0.152 nM. It also gave a GI50 (NCI-H522) of 0.184 nM, a GI50 (SK-OV-3) of 0.502 nM and a GI50 (SF-295; Homo sapiens, SF-295, CNS cancer, 48 hours) of 1.44 nM. For the same compound, the “times more active than paclitaxel (GI50)” value (SF-295; SF-295, vs paclitaxel) was 25 times, the IC (TGI) ([3]; on the order of, various cancer cell lines) was ~0.1 nM and the “dose response curves compared with paclitaxel” value ([3]; breast, ovarian, CNS, non-small lung cancer, FIGS. 1-4) was “extend one log unit lower”. The “growth inhibition (GI50) compared with paclitaxel” value ([3]; in general, vs paclitaxel) was “active at a much lower concentration as compared to paclitaxel”, the “total growth inhibition compared with paclitaxel” value ([3]; various cancer cell lines, vs paclitaxel) was “more active than paclitaxel” and the “dose response curve compared with paclitaxel” value (CNS cancer) was “extend one log unit lower than those for paclitaxel”. The GI50 (SNB-75; SNB-75, CNS cancer, 48 hours, read-out: GI50) was 0.21 nM, the “times more active than paclitaxel (TGI)” value (SNB-75; SNB-75, CNS cancer, vs paclitaxel) was 67 times and the “times more active than paclitaxel (GI50)” value (SNB-75; SNB-75, vs paclitaxel) was 65 times. The GI50 (SN12C; Homo sapiens, renal cancer, 48 hours) was 0.481 nM, the “times more active than paclitaxel (GI50)” value (SN12C; vs paclitaxel) was 16 times and the GI50 (SNB-19) was 0.354 nM. The GI50 ([4]; ovarian lines OVCAR-3, OVCAR-5 and IGROVI) was ~0.1 nM, the “dose response curve compared with paclitaxel” value ([4]; ovarian cancer, FIG. 2, vs paclitaxel) was “extend one log unit lower than those for paclitaxel” and the GI50 (NCI-H322M) was 0.593 nM. It also gave a GI50 (HOP-62) of 1.13 nM, a GI50 (U251) of 0.363 nM and a GI50 (breast cancer cell lines; breast lines MCF-7, ADR-RES and T-47D) of 0.1 to 10 nM. The “dose response curve compared with paclitaxel” value (breast cancer cell lines; breast cancer, FIG. 1, vs paclitaxel) was “extend one log unit lower than those for paclitaxel”, the GI50 (MOLT-2) was 0.487 nM and the “times more active than paclitaxel (GI50)” value (786-0; 786-0, vs paclitaxel) was 11 times. The GI50 (786-0; Homo sapiens, 786-0, renal cancer, 48 hours) was 1.33 nM.

For `CC(=O)O[C@H]1C(=O)[C@@]2(C)[C@H]([C@H](OC(=O)c3ccccc3)[C@]3(O)C[C@H](OC(=O)[C@H](O)[C@@H](NC(=O)c4ccccc4)c4ccccc4)C(C)=C1C3(C)C)[C@]1(OC(C)=O)CO[C@@H]1C[C@@H]2O` [paclitaxel], the GI50 (SF-268; SF-268, 48 h) was 7.61 nM, the IC (TGI) [3] was 10 to 100 nM and the GI50 (SNB-75; SNB-75, 48 h) was 13.6 nM. It also gave a GI50 ([4]; 48 h) of 1 to 10 nM and a GI50 (breast cancer cell lines) of 10 to 100 nM.
